The target of the experiment is T1, UvrA (Escherichia coli, UniProt P0A698).
T1 construct: full-length, C-terminal flexible linker, AviTag, TEV site and His tag; Ni-NTA purified from E. coli (BL21 delta-uvrA delta-uvrB used for expression); unlabelled; homodimer
T1 sequence (P0A698 1-940): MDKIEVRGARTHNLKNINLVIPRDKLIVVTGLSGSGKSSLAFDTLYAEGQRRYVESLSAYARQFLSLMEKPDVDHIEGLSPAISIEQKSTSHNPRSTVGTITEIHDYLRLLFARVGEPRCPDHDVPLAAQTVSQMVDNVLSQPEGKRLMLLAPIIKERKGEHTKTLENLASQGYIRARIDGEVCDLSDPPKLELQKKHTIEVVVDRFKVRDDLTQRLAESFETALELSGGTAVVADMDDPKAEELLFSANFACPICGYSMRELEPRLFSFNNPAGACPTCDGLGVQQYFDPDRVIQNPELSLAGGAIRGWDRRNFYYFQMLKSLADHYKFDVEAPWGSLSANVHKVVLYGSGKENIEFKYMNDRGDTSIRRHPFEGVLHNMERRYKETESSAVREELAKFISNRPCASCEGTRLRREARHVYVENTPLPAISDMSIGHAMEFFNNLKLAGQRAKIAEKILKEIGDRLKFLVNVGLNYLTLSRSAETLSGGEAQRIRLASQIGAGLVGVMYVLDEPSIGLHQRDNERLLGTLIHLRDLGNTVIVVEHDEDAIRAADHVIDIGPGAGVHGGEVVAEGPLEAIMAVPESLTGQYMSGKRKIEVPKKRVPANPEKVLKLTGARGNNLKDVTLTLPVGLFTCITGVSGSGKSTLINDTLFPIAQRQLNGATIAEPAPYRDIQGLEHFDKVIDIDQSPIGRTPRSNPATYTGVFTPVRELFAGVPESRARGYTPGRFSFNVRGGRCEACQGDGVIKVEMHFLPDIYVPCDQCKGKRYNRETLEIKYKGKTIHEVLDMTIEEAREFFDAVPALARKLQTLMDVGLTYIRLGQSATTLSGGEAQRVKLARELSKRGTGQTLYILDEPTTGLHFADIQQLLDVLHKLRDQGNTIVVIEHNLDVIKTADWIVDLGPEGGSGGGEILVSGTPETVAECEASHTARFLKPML
The experiment can be described thus: NADH-linked ATPase assay (pyruvate kinase / lactate dehydrogenase). The class given is biochemical. As to conditions: 50 µM ATBC, 5 min preincubation; 1 mM ATP; 50 mM Tris-HCl pH 7.5, 50 mM KCl, 10 mM MgCl2; room temperature; poorly soluble, nominal concentration; ATPase site proposed from docking.

As for `Nc1nnc(-c2cc3c(ccc4ccccc43)oc2=O)s1` [ATBC, 2-(5-amino-1,3,4-thiadiazol-2-yl)benzo(f)chromen-3-one], the “% reduction of kcat at 50 μM” value is given as ~ 70%.

The record behind these values is PMC9152706, “Identification of the target and mode of action for the prokaryotic nucleotide excision repair inhibitor ATBC” (Bioscience Reports, 2022).
